Values of other authors, collected in patent US8466103B2, “Exendin polypeptide linked to biotin, method for the preparation thereof and pharmaceutical composition comprising the same” (B&L Delipharm, Corp., priority 2008, dated 2013).

Target: Na-dependent multivitamin transport system
Conditions: small intestines; read-out: Affinity constant of the transport system for biotin; cited from earlier work

## O=C(O)CCCC[C@@H]1SC[C@@H]2NC(=O)N[C@@H]21 [biotin]
  Kd: ~2.6 nM
